Experimental data: a melting point compilation (Tetko et al.; mined from patent text by program, amines drawn as free bases though some values may be those of a salt)

Compound | melting point
C=CCOC(=O)C=CC(=O)NC(N)=O | 108 to 110 °C
COc1ccc(-c2ocnc2-c2cc(OC)c(F)c(OC)c2)cc1N | 140 to 142 °C
Cc1ccnc2c1C(=O)CC(c1sc(Cl)cc1Cl)C2 (configuration not stated) | 109 to 111 °C
O=C(CN1CCN(CC2CCn3c(nc4ccccc43)S2)CC1)N1CCCC1 (configuration not stated) | 159 to 162 °C
COc1ccc(-c2nc(N3CCOCC3)c3c(C)c(C#N)sc3n2)cc1 | 204 to 206 °C
Cc1ncc2n1C(=O)N(C1CCN(C(=O)CCS(=O)(=O)c3ccc4cc(Cl)ccc4c3)CC1)C2 | 195 °C
O=C(O)C1=Cc2cc(Cl)cc(C#Cc3ccccc3)c2OC1C(F)(F)F (configuration not stated) | 190 to 192 °C
CCc1nn(CCO)c(CC)c1Oc1cc(C#N)cc(SC)c1 | 72 °C
CCOC(=O)C1CNc2c(OC)cc(Cc3cnc(N)nc3N)c(OC)c2C1 (configuration not stated) | 186 to 188 °C
CC(=O)NC[C@H]1CN(c2ccc3c(c2)CC(C)N3CCF)C(=O)O1 (some centres not stated) | 127 to 130 °C
CCOC(=O)c1ccc(-c2cc3c(NCCCN4CCOCC4)ncnc3[nH]2)cc1 | 231 to 234 °C
CCOc1cc(C(O)CS(C)(=O)=O)cc(OCC)c1N (configuration not stated) | 166 to 168 °C
C=CCC(CO)C(O)c1ccccc1 (configuration not stated) | 41 to 43 °C
O=S(=O)(c1ccccc1)S(=O)(=O)c1ccccc1 | 142 to 144 °C
O=CNc1nc(C(=NOC2CCCCC2)C(=O)O)cs1 | > 230 °C
Cc1c(Cc2cccc(C(F)(F)F)c2)oc2cccc(-c3cccc(C(=O)NCCC#N)c3)c12 | 108 to 109 °C
O=[N+]([O-])c1oc2ccc(-c3nnn[nH]3)cc2c1-c1ccccc1 | 215 to 217 °C
Cc1nc2c(O)c(C(=O)[C@@H]3OC(C)(C)O[C@H]3c3ccccc3)ccc2n1C | 233 °C
COc1ccc(-c2cc(NC(=O)CCCCN3CCCN(C(C)=O)CC3)n[nH]2)cc1 | 132 to 133 °C
COc1c(C(N)=O)nnn1Cc1ccccc1Cl | 185 to 187 °C
COc1cc(OC)c2c(=O)c(O)c(-c3ccc(OC)c(OC)c3)oc2c1 | 192 to 194 °C
C=C(C)COc1ccc2c(=O)c(C)c(-c3ccccc3)oc2c1C(=O)C=Cc1cccc(OC)c1 | 131 to 134 °C
COc1ccc(-c2cc3ccccc3[nH]2)cc1NCc1ccc(O)c([N+](=O)[O-])c1 | 165 to 166 °C
O=C(NC(Cc1c[nH]c2ccccc12)C(=O)OCc1cccc(C(F)(F)F)c1)c1ccccc1 (configuration not stated) | 118 °C
C=Cc1ccc2c(NCc3ccc(NC(=O)C4CCN(Cc5ccccc5)CC4)cc3)nc(N(C)C)nc2c1 | 180 °C
Cn1cc(-c2ccccc2)c(=O)c(-c2ccco2)c1 | 191 to 192 °C

Compound | melting point
Cn1nc(C(F)F)[nH]c1=O | 141 °C
CCONC(=O)c1ccc(-c2cccc(CN(C)Cc3ccccc3)c2)cn1 | 85 to 90 °C
COc1ccc(CN2C(=O)c3c(-c4ccccc4Cl)cc4[nH]c5ccc(OC)cc5c4c3C2=O)c(OC)c1 | 224 to 226 °C
O=C1NC2(CCCc3sccc32)c2ccccc21 (configuration not stated) | 224 to 226 °C
O=C(O)c1ccc(I)nc1 | 177 to 179 °C
C=CCN(C)C(=O)Cn1c(-c2ccc(Cl)cc2)nc2cccnc21 | 124 to 127 °C
COC(=O)C(=O)c1oc2cccc(OCc3ccc(F)cc3)c2c1O | 138 to 141 °C
C=CCNC(=O)N1CC(Sc2ccc(Cl)cc2)C1 | 88 to 89 °C
CCn1nc2c(N)nc3ccccc3c2c1CC1(O)CCN(S(C)(=O)=O)CC1 | 268 to 270 °C
C[C@@H]1CN(c2cc3c(c(N)c2F)c(=O)c(C(=O)O)cn3C2CC2)C[C@H](C)N1 | 253 to 254 °C
CN(C(=O)CNc1nc(-c2ccc(C(F)(F)F)cc2)nc(-c2ccccc2)c1Cl)C1CC1 | 188 to 189 °C
COc1ccc(P2(=O)c3ccccc3CN2c2ccccc2)cc1 (configuration not stated) | 190 to 192 °C
CC(C)c1cccc(C(C)C)c1NC(=O)CN1C(=O)N(c2ccc(C#N)cc2)C2(CCCCC2)C1=O | 280 to 282 °C
CCSCc1c(CCN(C)C)[nH]c2ccccc12 | 59 to 61 °C
O=c1[nH]nc2n1-c1ccc(Cl)cc1C(c1ccccc1F)CC2 (configuration not stated) | 236 to 238 °C
O=c1cc(-c2nc3ccccc3[nH]2)oc2ccc(Cl)cc12 | 248 to 250 °C
Cn1cc(C2=C(c3cn(CCCN=C=S)c4ccccc34)C(=O)NC2=O)c2ccccc21 | 219 to 221 °C
CCCCCCCCCCC(O)CNCCCCCCNCC(O)CCCCCCCCCC (configuration not stated) | 124 to 128 °C
O=c1c(O)c(-c2ccc[nH]2)oc2ccccc12 | 201 to 203 °C
O=C(O)CCCc1ccc2c(c1)CCC2 | 57 to 58 °C
O=C1Cc2cc(CCCl)ccc2N1 | 168 to 170 °C
Cc1nc(N2C(=O)CN(c3ccc(F)cc3)C2=O)sc1C(=O)NCc1ccccc1 | 217 to 219 °C
N=C(NNC=O)c1ccc(-c2ccc(Cl)cc2)o1 | 155 to 157 °C
Cc1noc(-c2cn(-c3cccc(-c4ccccc4OC(F)(F)F)c3)cn2)n1 | 142 to 144 °C
N#Cc1cc2c(Cl)ncnc2s1 | 185 to 190 °C
CS(=O)c1nccc(-c2cn(Cc3ccccc3C#N)c(=O)n2-c2ccc(F)cc2)n1 (configuration not stated) | 133 to 136 °C
